Reference: the supplement of paper PMC10307832

Columns and labels:
Assay in all cases: relative viability (nuclei count vs DMSO), 5 days (fraction); higher = more cells survive
[1] = compound: COc1cc([C@@H]2c3cc4c(cc3[C@@H](O[C@@H]3O[C@@H]5CO[C@@H](C)O[C@H]5[C@H](O)[C@H]3O)[C@H]3COC(=O)[C@H]23)OCO4)cc(OC)c1O [Etoposide] + CS(=O)(=O)N1CCN(Cc2cc3nc(-c4cccc5[nH]ncc45)nc(N4CCOCC4)c3s2)CC1 [Pictilisib] (partner 1 µM)
In short: (§1)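 Values are medians from duplicate plates. Each reflects relative viability, defined as the nuclei count of treated wells over that of vehicle wells. Lung cancer cell lines in 1536-well plates were pin-tool dosed one day after seeding with one drug alone or with a fixed anchor-drug dose plus five library-drug doses (not always all listed) in √10 steps, then fixed, stained and imaged at 4× after 5 days.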

[2] = compound: CC1=C(N=C(N=C1N)[C@H](CC(=O)N)NC[C@@H](C(=O)N)N)C(=O)N[C@@H]([C@H](C2=CN=CN2)OC3C(C(C(C(O3)CO)O)O)OC4C(C(C(C(O4)CO)O)OC(=O)N)O)C(=O)N[C@H](C)[C@H]([C@H](C)C(=O)N[C@@H]([C@@H](C)O)C(=O)NCCC5=NC(=CS5)C6=NC(=CS6)C(=O)NCCC[S+](C)C)O [Bleomycin] + Cc1nc(Nc2ncc(C(=O)Nc3c(C)cccc3Cl)s2)cc(N2CCN(CCO)CC2)n1 [Dasatinib] (partner 0.075 µM); conditions: main component drawn
In short: as §1

[3] = compound: COc1cc([C@@H]2c3cc4c(cc3[C@@H](O[C@@H]3O[C@@H]5CO[C@@H](C)O[C@H]5[C@H](O)[C@H]3O)[C@H]3COC(=O)[C@H]23)OCO4)cc(OC)c1O [Etoposide] + CC(=O)Nc1cccc(-n2c(=O)n(C3CC3)c(=O)c3c(Nc4ccc(I)cc4F)n(C)c(=O)c(C)c32)c1 [Trametinib] (partner 0.02 µM)
In short: as §1

[4] = compound: COc1cc([C@@H]2c3cc4c(cc3[C@@H](O[C@@H]3O[C@@H]5CO[C@@H](C)O[C@H]5[C@H](O)[C@H]3O)[C@H]3COC(=O)[C@H]23)OCO4)cc(OC)c1O [Etoposide] + COc1cc2c(Oc3ccc(NC(=O)C4(C(=O)Nc5ccc(F)cc5)CC4)cc3F)ccnc2cc1OCCCN1CCOCC1 [Foretinib] (partner 0.25 µM)
In short: as §1

Cell Line | relative viability ([1]; first compound 0.01 µM) | relative viability ([1]; first compound 0.03162 µM) | relative viability ([1]; first compound 0.1 µM) | relative viability ([1]; first compound 0.3162 µM) | relative viability ([1]; first compound 1 µM) | relative viability ([2]; first compound 0.01 µM) | relative viability ([2]; first compound 0.03162 µM) | relative viability ([2]; first compound 0.1 µM) | relative viability ([2]; first compound 0.3162 µM) | relative viability ([2]; first compound 1 µM) | relative viability ([3]; first compound 0.01 µM) | relative viability ([3]; first compound 0.03162 µM) | relative viability ([3]; first compound 0.1 µM) | relative viability ([3]; first compound 0.3162 µM) | relative viability ([3]; first compound 1 µM) | relative viability ([4]; first compound 0.01 µM) | relative viability ([4]; first compound 0.03162 µM) | relative viability ([4]; first compound 0.1 µM) | relative viability ([4]; first compound 0.3162 µM) | relative viability ([4]; first compound 1 µM)
NCI-H661 | 0.543 | 0.453 | 0.309 | 0.32 | 0.26 | 0.741 | 0.657 | 0.623 | 0.262 | 0.242 | 0.567 | 0.639 | 0.398 | 0.51 | 0.388 | 0.982 | 1.06 | 0.889 | 0.845 | 0.53
NCI-H727 | 0.327 | 0.469 | 0.215 | 0.444 | 0.35 | 0.466 | 0.345 | 0.325 | – | 0.293 | 0.395 | 0.43 | 0.378 | 0.338 | 0.355 | 0.988 | 0.912 | – | 0.732 | 0.606
NCI-H1793 | 0.321 | 0.433 | – | 0.313 | 0.243 | 0.382 | 0.427 | 0.329 | 0.17 | 0.115 | – | 0.484 | 0.357 | 0.352 | 0.293 | 0.491 | 0.644 | – | 0.503 | 0.248
NCI-H1734 | 0.468 | 0.47 | 0.266 | 0.341 | 0.272 | 0.357 | 0.312 | 0.348 | 0.145 | 0.154 | 0.655 | 0.74 | 0.499 | 0.461 | 0.452 | 0.776 | 0.923 | 0.701 | 0.602 | 0.369
LXF-289 | 0.807 | 0.849 | 0.655 | 0.556 | 0.152 | 0.19 | 0.228 | 0.197 | 0.077 | 0.0555 | 0.742 | 0.705 | 0.71 | 0.531 | 0.2 | 0.973 | 0.971 | 1.02 | 0.611 | 0.327
H3255 | 0.498 | 0.499 | 0.381 | 0.411 | 0.298 | 0.356 | 0.448 | 0.426 | 0.332 | 0.327 | 0.578 | 0.707 | 0.411 | 0.57 | 0.347 | 0.974 | 0.897 | 0.603 | 0.674 | 0.457
201T | 0.677 | 0.767 | 0.652 | 0.63 | 0.445 | 0.527 | 0.529 | 0.546 | 0.444 | 0.463 | 0.73 | 0.76 | 0.707 | 0.602 | 0.544 | 0.981 | 0.931 | 1.1 | 0.778 | 0.425
NCI-H2228 | 0.351 | 0.411 | 0.167 | 0.229 | 0.109 | 0.45 | 0.495 | 0.618 | 0.342 | 0.172 | 0.485 | 0.576 | 0.32 | 0.279 | 0.168 | 0.803 | 1.04 | 0.812 | 0.519 | 0.204
HOP-62 | 0.796 | 1.01 | 0.321 | 0.448 | 0.149 | 0.49 | 0.479 | 0.377 | 0.165 | 0.106 | 0.348 | 0.395 | 0.325 | 0.343 | 0.316 | 1.06 | 1.05 | 0.967 | 0.628 | 0.418
CAL-12T | 0.508 | 0.438 | 0.323 | 0.391 | 0.258 | 0.246 | 0.259 | 0.164 | 0.0878 | 0.12 | 0.238 | 0.43 | 0.241 | 0.367 | 0.211 | 1.19 | 1.16 | 1.13 | 0.765 | 0.401
NCI-H596 | 0.398 | 0.427 | – | 0.375 | 0.36 | 0.548 | 0.531 | 0.395 | 0.24 | 0.221 | 0.7 | 0.965 | 0.772 | 0.727 | 0.646 | 0.748 | 0.833 | 1.04 | 0.799 | 0.596
NCI-H1755 | 0.434 | 0.473 | 0.316 | 0.426 | 0.269 | 0.409 | 0.433 | 0.407 | 0.454 | 0.29 | 0.751 | 0.787 | 0.692 | 0.723 | 0.546 | 0.958 | 0.974 | 0.919 | 0.883 | 0.869
NCI-H2023 | 0.225 | 0.255 | 0.145 | 0.124 | 0.0878 | 0.345 | 0.316 | 0.302 | 0.163 | 0.129 | 0.448 | 0.647 | 0.559 | 0.452 | 0.186 | 0.987 | 0.886 | 0.814 | 0.352 | 0.218
NCI-H2009 | 0.693 | 0.898 | 0.54 | 0.543 | 0.236 | 0.298 | 0.297 | 0.311 | 0.21 | 0.196 | 0.239 | 0.286 | 0.168 | 0.246 | 0.216 | 1.17 | 1.24 | 1.17 | 0.835 | 0.694
